According to publication PMC12143591, “Unlocking the serine mischarging paradox and inhibiting lactyltransferase activity of AlaRS by a single-point mutation” (Nucleic Acids Research, 2025):
Read-outs that look alike come from different tables or passages of the source.

How the values were obtained:
Assay in all cases: PPi release assay (pyrophosphatase, BIOMOL Green, […] nm)
Assay type in all cases: biochemical
AlaRS (AlaRS^WT) [1] = target: T1, AlaRS (AlaRS^WT) (Methylomonas sp. DH-1, UniProt Z9JP01Z3Z1, L219A, form not given); details: 8 uM tRNA-Ala, 200 uM ATP, 40 mM MgCl2, 1 mM DTT, pH 7.5, 37 °C; read-out: Alanine / K m
T1 construct: full-length, pET-28b(+) (BamHI/NotI), Ni-NTA purified from E. coli Rosetta-gami2(DE3)pLysS; tag removal not mentioned

AlaRS (AlaRS^WT) [2] = target: T2, AlaRS (AlaRS^WT) (Methylomonas sp. DH-1, UniProt Z9JP01Z3Z1, L219F, form not given); details: 8 uM tRNA-Ala, 200 uM ATP, 40 mM MgCl2, 1 mM DTT, pH 7.5, 37 °C; read-out: Alanine / K m
T2 construct: full-length, pET-28b(+) (BamHI/NotI), Ni-NTA purified from E. coli Rosetta-gami2(DE3)pLysS; tag removal not mentioned

AlaRS429 = target: T3, AlaRS429 (Methylomonas sp. DH-1, UniProt Z9JP01Z3Z1, L219M, form not given); details: 8 uM tRNA-Ala, 200 uM ATP, 40 mM MgCl2, 1 mM DTT, pH 7.5, 37 °C; read-out: Alanine / K m
T3 construct: residues 1-429 (aminoacylation domain, no editing domain), non-cleavable C-terminal His6 tag, synthetic gene in pET28b(+), E. coli BL21(DE3)

AlaRS (AlaRS^WT) [3] = target: T4, AlaRS (AlaRS^WT) (Methylomonas sp. DH-1, UniProt Z9JP01Z3Z1, L219M, form not given); details: 8 uM tRNA-Ala, 200 uM ATP, 40 mM MgCl2, 1 mM DTT, pH 7.5, 37 °C
T4 construct: full-length, pET-28b(+) (BamHI/NotI), Ni-NTA purified from E. coli Rosetta-gami2(DE3)pLysS; tag removal not mentioned

AlaRS (AlaRS^WT) [4] = target: T5, AlaRS (AlaRS^WT) (Methylomonas sp. DH-1, UniProt Z9JP01Z3Z1, V207A/L222M, form not given); details: 8 uM tRNA-Ala, 200 uM ATP, 40 mM MgCl2, 1 mM DTT, pH 7.5, 37 °C; read-out: Alanine / K m
T5 construct: full-length, pET-28b(+) (BamHI/NotI), Ni-NTA purified from E. coli Rosetta-gami2(DE3)pLysS; tag removal not mentioned

Row | Compound | Km (AlaRS (AlaRS^WT) [1]) | Km (AlaRS (AlaRS^WT) [2]) | Km (AlaRS429) | Km (AlaRS (AlaRS^WT) [3]; read-out: Alanine / K m) | Km (AlaRS (AlaRS^WT) [4]) | Km (AlaRS (AlaRS^WT) [3]; read-out: Glycine / K m)
1 | C[C@H](N)C(=O)O [Ala] | 9 ± 6 µM | 7 ± 3 µM | 3 ± 1 µM | 0.009 ± 0.001 mM | 145 ± 39 µM | 
2 | NCC(=O)O [Gly] |  |  |  |  |  | 7.91 ± 3.28 mM
